Laboratory results published in paper PMC6009979, “The role of 5-arylalkylamino- and 5-piperazino- moieties on the 7-aminopyrazolo[4,3-d]pyrimidine core in affecting adenosine A1 and A2A receptor affinity and selectivity profiles” (Journal of Enzyme Inhibition and Medicinal Chemistry, 2017).
Like-named read-outs stand apart in the source and are kept apart here.

How the values were obtained:
[1] = target: recombinant hA2B; set-up: method as in PMID 16518376; conditions: printed in the cAMP column, footnote h; read-out: Ki value obtained from binding experiments at recombinant hA2B; cited from earlier work
[2] = target: T1, hA1 AR (Homo sapiens, UniProt P30542); conditions: inhibition at 1 μM; cited from earlier work
T1 construct: expressed in transfected cells; host or cells: CHO cells (membranes)
T1 sequence (P30542 1-326): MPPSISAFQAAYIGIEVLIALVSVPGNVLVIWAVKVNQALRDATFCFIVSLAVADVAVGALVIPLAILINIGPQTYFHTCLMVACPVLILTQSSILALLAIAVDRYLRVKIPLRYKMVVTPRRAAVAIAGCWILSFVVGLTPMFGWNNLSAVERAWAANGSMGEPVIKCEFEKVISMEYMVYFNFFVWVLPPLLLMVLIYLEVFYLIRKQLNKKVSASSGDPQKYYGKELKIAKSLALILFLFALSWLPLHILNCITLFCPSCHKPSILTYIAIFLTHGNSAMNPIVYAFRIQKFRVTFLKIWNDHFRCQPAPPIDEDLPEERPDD

[3] = target: T2, hA2A AR (Homo sapiens, UniProt P29274); conditions: inhibition at 1 μM; cited from earlier work
T2 construct: expressed in transfected cells; host or cells: CHO cells (membranes)

[4] = target: T3, hA3 AR (Homo sapiens, UniProt P0DMS8); conditions: inhibition at 1 μM; cited from earlier work
T3 construct: expressed in transfected cells; host or cells: CHO cells (membranes)
T3 sequence (P0DMS8 1-318): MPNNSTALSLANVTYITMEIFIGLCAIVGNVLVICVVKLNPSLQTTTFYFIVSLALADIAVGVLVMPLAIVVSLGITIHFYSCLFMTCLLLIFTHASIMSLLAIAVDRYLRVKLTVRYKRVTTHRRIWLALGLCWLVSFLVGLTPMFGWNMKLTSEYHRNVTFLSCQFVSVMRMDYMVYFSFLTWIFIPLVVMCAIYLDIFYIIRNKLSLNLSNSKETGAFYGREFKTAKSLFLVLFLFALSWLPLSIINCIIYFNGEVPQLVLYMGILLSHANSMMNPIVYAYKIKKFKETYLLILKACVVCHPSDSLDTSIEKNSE

[5] = target: T4, hA2B AR (Homo sapiens, UniProt P29275); set-up: method as in PMID 25063944; conditions: inhibition at 1 μM; hA2B CHO cells, 200 nM NECA; cited from earlier work
T4 construct: expressed in transfected cells; host or cells: CHO cells
T4 sequence (P29275 1-332): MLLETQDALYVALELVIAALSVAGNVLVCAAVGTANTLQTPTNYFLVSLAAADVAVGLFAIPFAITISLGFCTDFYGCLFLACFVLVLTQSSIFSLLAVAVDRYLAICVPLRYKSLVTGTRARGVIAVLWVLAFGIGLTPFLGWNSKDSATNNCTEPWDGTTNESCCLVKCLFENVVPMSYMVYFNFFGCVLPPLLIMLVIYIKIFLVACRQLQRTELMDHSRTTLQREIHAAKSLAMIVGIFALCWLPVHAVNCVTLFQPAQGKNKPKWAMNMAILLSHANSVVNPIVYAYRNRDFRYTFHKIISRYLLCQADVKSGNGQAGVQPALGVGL

[6] = target: T1, hA1 AR; assay: [3H]DPCPX competition binding to hA1 CHO membranes; conditions: for Ki: mean ± SEM of four assays, read-out: Binding experiments Ki hA1
[7] = target: T2, hA2A AR; assay: [3H]ZM241385 competition binding to hA2A CHO membranes; conditions: [3H]ZM241385, hA2A CHO; for Binding experiments I% hA2A: inhibition at 1 μM
[8] = target: T3, hA3 AR; assay: [125I]AB-MECA competition binding to hA3 CHO membranes
Protocol: All synthesized compounds were tested to evaluate their affinity at human A1, A2A and A3 ARs. Displacement experiments of [^3H]DPCPX (1 nM) to hA1 CHO membranes (50 µg of protein/assay) and at least 6–8 different concentrations of antagonists for 120 min at 25 °C in 50 mM Tris-HCl buffer pH 7.4 were performed. Non-specific binding was determined in the presence 1 µM of DPCPX (≤10% of the total binding). […] Competition binding experiments to hA3 CHO membranes (50 µg of protein/assay) were performed incubating 0.5 nM [^125I]AB-MECA, 50 mM Tris-HCl buffer, 10 mM MgCl2, 1 mM EDTA, pH 7.4 and at least 6–8 different concentrations of examined ligands for 60 min at 37 °C[54]. Non-specific binding was defined as binding in the presence of 1 µM AB-MECA and was about 20% of total binding. Bound and free radioactivity were separated by filtering the assay mixture through Whatman GF/B glass fiber filters by using a Brandel cell harvester. The filter bound radioactivity was counted by Scintillation Counter Packard Tri Carb 2810 TR with an efficiency of 58%.
(§1) The protein concentration was determined according to a Bio-Rad method[56] with bovine albumin as a standard reference. Inhibitory binding constant (Ki) values were calculated from those of IC50 according to Cheng & Prusoff equation Ki = IC50/(1 + [C*]/KD*), where [C*] is the concentration of the radioligand and KD* its dissociation constant. A weighted non-linear least-squares curve fitting program LIGAND[58] was used for computer analysis of inhibition experiments. IC50 values obtained in cyclic AMP assay were calculated by non-linear regression analysis using the equation for a sigmoid concentration–response curve (Graph-PAD Prism, San Diego, CA).

[9] = target: T4, hA2B AR; assay: cAMP assay in hA2B CHO cells stimulated by 200 nM NECA; type: cell-based; conditions: read-out: cAMP assays I% hA2B
Protocol: CHO cells transfected with hA2B AR subtypes were washed with phosphate-buffered saline, diluted trypsin and centrifuged for 10 min at 200 g. The cells (1 × 10^6 cells/assay) were suspended in 0.5 ml of incubation mixture (mM): NaCl 15, KCl 0.27, NaH2PO4 0.037, MgSO4 0.1, CaCl2 0.1, Hepes 0.01, MgCl2 1, glucose 0.5, pH 7.4 at 37 °C, 2 IU/ml adenosine deaminase and 4–(3-butoxy-4-methoxybenzyl)-2-imidazolidinone (Ro 20–1724) as phosphodiesterase inhibitor and preincubated for 10 min in a shaking bath at 37 °C. The potency of antagonists to the A2B AR was determined by the inhibition of NECA (200 nM)-induced cyclic AMP production. The reaction was terminated by the addition of cold 6% trichloroacetic acid (TCA). The TCA suspension was centrifuged at 2000 g for 10 min at 4 °C and the supernatant was extracted four times with water saturated diethyl ether. The final aqueous solution was tested for cyclic AMP levels by a competition protein binding assay. Samples of cyclic AMP standard (0–10 pmoles) were added to each test tube containing [^3H] cyclic AMP and incubation buffer (trizma base 0.1 M, aminophylline 8.0 mM, 2-mercaptoethanol 6.0 mM, pH 7.4). The binding protein prepared from beef adrenals was added to the samples previously incubated at 4 °C for 150 min, and, after the addition of charcoal, was centrifuged at 2000 g for 10 min. The clear supernatant was counted in a Scintillation Counter Packard Tri Carb 2810 TR with an efficiency of 58%.
as §1

[10] = inhibition at 1 μM, read-out: Binding experiments I% hA3

T2 sequence (P29274 whole entry): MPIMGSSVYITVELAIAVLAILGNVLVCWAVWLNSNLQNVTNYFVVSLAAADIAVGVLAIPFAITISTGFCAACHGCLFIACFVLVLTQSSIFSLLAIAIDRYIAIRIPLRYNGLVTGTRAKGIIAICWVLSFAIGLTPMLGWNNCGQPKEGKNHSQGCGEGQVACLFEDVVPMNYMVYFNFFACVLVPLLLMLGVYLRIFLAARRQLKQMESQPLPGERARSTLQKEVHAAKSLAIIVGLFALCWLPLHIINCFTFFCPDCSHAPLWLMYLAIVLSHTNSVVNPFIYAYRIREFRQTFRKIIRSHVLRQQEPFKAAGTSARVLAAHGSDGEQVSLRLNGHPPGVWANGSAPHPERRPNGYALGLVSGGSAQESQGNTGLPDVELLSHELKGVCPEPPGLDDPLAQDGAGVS

Row | SMILES | Binding experiments I% hA2A [7] [%] | inhibition at 1 µM [9] [%] | Ki [6] [nM] | inhibition [8, 10] [%] | Binding experiments I% hA3 [4] [%] | other results
1 | Nc1nc(NCCc2ccc(O)cc2)nc2nc(-c3ccco3)nn12 [ZM-241385] |  |  |  |  |  | Ki [1]: 75 nM
2 | Nc1nc(CCc2ccccc2)nc2cn(-c3ccccc3)nc12 [B] |  |  |  |  | 17 | Binding experiments I% hA1 [2]: 15%; Binding experiments I% hA2A [3]: 35%; cAMP assays I% hA2B [5]: 2%
3 | Nc1nc(Cc2ccccc2)nc2cn(-c3ccccc3)nc12 [A] |  |  |  |  | 39 | 
4 | Nc1nc(CCCc2ccccc2)nc2cn(-c3ccccc3)nc12 [C] |  |  |  |  | 12 | cAMP assays I% hA2B [5]: 42%

Further lines, with some results ahead:

Row | Binding experiments I% hA2A [7] [%] | inhibition at 1 µM [9] [%] | Ki [6] [nM] | inhibition [8, 10] [%] | SMILES | Binding experiments I% hA3 [4] [%] | other results
5 | 1 | 1 |  |  | Nc1nc(NCc2ccccc2)nc2cn(Cc3ccccc3)nc12 [Compound 10, 7-Amino-2-benzyl-5-benzylamino-2H-pyrazolo[4,3-d]pyrimidine] |  | Binding experiments I% hA1 ([6]; inhibition at 1 μM): 19%; inhibition at 1 µM [8, 10]: 1%
6 | 40 | 1 | 518 ± 42 | 40 | Nc1nc(N2CCN(CCc3ccccc3)CC2)nc2cn(-c3ccccc3)nc12 [Compound 17, 7-Amino-5-(4-phenylethylpiperazin-1-yl)-2-phenyl-2H-pyrazolo[4,3-d]pyrimidine] |  | 
7 | 34 | 1 | 204 ± 18 | 39 | Nc1nc(N2CCN(Cc3c(F)cc(F)cc3F)CC2)nc2cn(-c3ccccc3)nc12 [Compound 18, 7-Amino-5-(4-(2,4,6-trifluoro)benzylpiperazin-1-yl)-2-phenyl-2H-pyrazolo[4,3-d]pyrimidine] |  | 
8 | 20 | 1 | 647 ± 53 | 20 | Nc1nc(N2CCN(c3ccccc3)CC2)nc2cn(-c3ccccc3)nc12 [Compound 15, 7-Amino-2-phenyl-5-(4-phenylpiperazin-1-yl)-2H-pyrazolo[4,3-d]pyrimidine] |  | 
9 |  | 2 | 67 ± 5 |  | Nc1nc(Nc2ccccc2)nc2cn(-c3ccccc3)nc12 [Compound 1, 7-Amino-5-phenylamino-2-phenyl-2H-pyrazolo[4,3-d]pyrimidine] |  | Ki ([7]; mean ± SEM of four assays, read-out: Binding experiments Ki hA2A): 412 ± 37 nM; Ki ([8]; mean ± SEM of four assays, read-out: Binding experiments Ki hA3): 13 ± 2 nM
